# Experimental data: patent US8435950B2, “Anti-aging peptides and cosmetic and/or pharmaceutical composition containing same” (ISP Investments, priority 2009, dated 2013)
# Where no end group is shown, it is not given here.
# Tests used:
# skin biopsies = experiment: Protective effect on morphology of skin biopsies during aging (hematoxyline/eosin histology); assay type: cell-based, human; conditions: 62 and 134 h culture, peptide diluted to 1% topically twice per day; untreated skin damaged
# Method: A study of the protective effect of the peptide SEQ ID no.1 was carried out in parallel by evaluating the damage caused by aging at 62 hr and 134 hr by way of immunohistology by means of colouration of sectional cuts of skin.
# Samples of human skin are placed in culture at the air/liquid interface. The peptide SEQ ID no.1 diluted to 1% (from a 10^−4M solution) is applied topically to these samples for 62 hr and 134 hr. The application is renewed twice per day during the period of the experiment. Untreated skin samples serve as a control during the experiment. The skin samples are fixed with 4% formaldehyde and enclosed in paraffin. Sectional cuts of 3 μm are made with a microtome. The tissues are coloured using hematoxyline (which colours the cell nuclei blue-black) and eosin, which is specific to the colouration of cytoplasms. The morphological structure of the biopsies is then assessed under transmission microscope.
# Clock protein [1] = experiment: Ex vivo immunolabeling of Clock protein in skin biopsies aged artificially during culture; assay type: cell-based, human
# Method: (§1) A study of the activating effect of the peptide SEQ ID no.1 was carried out by evaluating the expression of Clock and Per-1 proteins in skin models, aged artificially during culture. The analysis was carried out after 62 hr and 134 hr of culturing.
# (§2) Ex vivo studies by immunolabeling have made it possible to evidence the expression of Clock and Per-1 proteins in skin samples aged during culture. Samples of human skin are cultured at the air/liquid interface for 62 hr and 134 hr. The peptide SEQ ID no.1 diluted to 1% (from a 10^−4M solution) is applied topically to these samples at a rate of two times per day during the period of the experiment.
# (§3) Skin samples not treated with the peptide SEQ ID no.1 serve as a control. The skin samples are fixed with 10% formaldehyde and enclosed in paraffin. Sectional cuts of 3 μm are made with a microtome. The immunolabeling is carried out after removal of the paraffin and unmasking of the antigenic sites. The immunolabeling for the Clock protein is carried out by means of an antibody (ABcam) diluted 1/250 and a secondary antibody diluted 1/50 and coupled to a fluorochrome.
# (§4) The slides are then mounted in a suitable medium and observed under epifluorescence microscope (Nikon Eclipse E600).
# Per-1 protein [2] = experiment: Ex vivo immunolabeling of Per-1 protein in skin biopsies aged artificially during culture; assay type: cell-based, human; conditions: after 62 hr of treatment
# Method: as §1, §2, §3
# The immunolabeling for the Per-1 protein is carried out by a polyclonal antibody (Cosmobio) diluted 1/100 and a secondary antibody diluted 1/50 and coupled to a fluorochrome. […]
# Clock protein [3] = experiment: Immunohistochemistry (immunolabeling) of Clock protein in cultured fibroblasts; assay type: cell-based; conditions: 18 hr, peptide diluted 1% (from a 10^-4M solution), versus untreated
# Method: (§5) A study of the activating effect of the peptide SEQ ID no.1 was carried out by evaluating the expression of the Clock protein by western blot in cultured fibroblasts and by immunohistochemistry by labeling the Clock protein by means of immunolabeling. The technique of western blotting is a semi-quantitative method which makes it possible to evaluate the level of Clock protein in dermal cells.
# Cultured fibroblasts are cultivated in 8-well chambers (labteck) at 37° C. in a humidified atmosphere containing 5% CO2 for 18 hr in the presence or absence of the peptide SEQ ID no.1, diluted 1% (from a 10^−4M solution). Untreated cells are cultivated at the same time and serve as a control. On the day of labeling the cells are rinsed, fixed in a mixture (2% glutaraldehyde—2% formaldehyde) for 3 minutes and then rinsed. The primary antibody (ABcam), diluted 1/250 is applied for 1 hour and a secondary antibody, diluted 1/50 and coupled to a fluorochrome is applied for 1 hour. The cells are then mounted between a slide and cover glass in a suitable mounting medium and observed under epifluorescence microscope.
# Per-1 protein [4] = experiment: Ex vivo immunolabeling of Per-1 protein in skin biopsies; assay type: cell-based; conditions: human skin ex vivo, peptide diluted to 1%, topical, 48 hr
# Method: (§6) A study of the activating effect of the peptide SEQ ID no.1 was carried out by evaluating the expression of Clock and Per-1 proteins in skin biopsies ex vivo.
# (§7) Ex vivo studies by immunolabeling have made it possible to evidence the expression of Clock and Per-1 proteins in skin samples. Samples of human skin are cultured at the air/liquid interface. The peptide SEQ ID no.1 diluted to 1% (from a 10^−4M solution) is applied topically to these samples for 48 hr at a rate of two times per 24 hr.
# (§8) Skin samples not treated with the peptide SEQ ID no.1 serve as a control. The skin samples are fixed with 10% formaldehyde and enclosed in paraffin. Sectional cuts of 3 μm are then made with a microtome. The immunolabeling is carried out after removal of the paraffin and unmasking of the antigenic sites.
# The immunolabeling for the Per-1 protein is carried out by a polyclonal antibody (Cosmobio) diluted 1/100 and a secondary antibody diluted 1/50 and coupled to a fluorochrome.
# as §4
# Clock protein [5] = experiment: Ex vivo immunolabeling of Clock protein in skin biopsies; assay type: cell-based; conditions: human skin ex vivo, peptide diluted to 1%, topical, 48 hr
# Method: as §6, §7, §8
# The immunolabeling for the Clock protein is carried out by means of an antibody (ABcam) diluted 1/250 and a secondary antibody diluted 1/50 and coupled to a fluorochrome.
# as §4
# Clock protein [6] = experiment: Western blot of Clock protein expression in cultured fibroblasts; assay type: cell-based; conditions: 16 hr, peptide diluted to 1% (from a 10^-4M solution), untreated control = 100%, Experiment 1
# Method: as §5
# Cultured fibroblasts are cultivated in containers with a diameter of 100 mm at 37° C. in a humidified atmosphere containing 5% CO2 for 16 hr in the presence or absence of the peptide SEQ ID no.1, diluted to 1% (from a 10^−4M solution). The cells are rinsed and then removed from the support with the aid of an extraction buffer (20 mM TRIS, 150 mM NaCl, 10 mM EDTA, 0.2% triton […]) in the presence of a cocktail of protease inhibitors (Sigma). The proteins thus extracted are centrifuged at 4° C. at 10000 rpm, before being dosed by the BCA protein dosing kit (Pierce). The cellular lysates are mixed with a denaturing buffer and subjected to SDS-PAGE electrophoresis. The gel used is 4-12% Nupage (Invitrogen). The proteins are then transferred to a nitrocellulose membrane (Pal corporation). […] The quantitative evaluation of the proteins present in the cells was carried out using the chemiimager software (Alpha innotech Corporation USA).
substance,measurement,setting,value
Ser-Pro-Leu-Gln-NH2 (SPLQ-NH2) [SEQ ID no.1],Morphological structure of skin biopsies / damage caused by aging,skin biopsies,well-preserved morphological structure
same,Labeling of the Clock protein compared to untreated control,Clock protein [1]; after 62 hr of culturing,increased
same,Labeling of the Clock protein compared to untreated control skin,Clock protein [1]; after 134 hr,largely increased
same,Expression of the PER-1 protein compared to untreated,Per-1 protein [2],increased
same,Expression of the Clock protein by labeling in fibroblasts,Clock protein [3],increase in the expression of the Clock protein
same,Amount of Per-1 protein compared with untreated skin,Per-1 protein [4],greater
same,Amount of Clock protein compared with untreated skin,Clock protein [5],slightly greater
same,"Intensity (%) of Clock protein, western blot",Clock protein [6],179%
